Active and inactive are the calls of the source. No cut-off for these calls is given here.
Legend:
Hepatovirus A [1] = experiment: Antiviral activity against hepatitis A virus genotype 1b infected in human Huh-7.5.1 cells assessed as reduction in virus production at 10 uM incubated for 72 hrs by Nano-Glo luciferase assay; assay type: functional, organism-based
Huh7.5.1 = experiment: Cytotoxicity in human Huh-7.5.1 cells assessed as reduction in cell viability at 10 uM incubated for 72 hrs by CellTiter-Glo luminescent cell viability assay; assay type: toxicity, cell-based; settings: huh7.5.1, 72 h
[2] = Selectivity index, ratio of CC50 for Cytotoxicity in human Huh-7.5.1 cells to EC50 for Antiviral activity against hepatitis A virus genotype 1b infected in human Huh-7.5.1 cells; assay type: toxicity, cell-based; settings: read-out: Ratio CC50/EC50
[3] = Cytotoxicity in human Huh-7.5.1 cells assessed as reduction in cell viability incubated for 72 hrs by CellTiter-Glo luminescent cell viability assay; assay type: toxicity, cell-based, Huh7.5.1
Hepatovirus A [4] = experiment: Antiviral activity against hepatitis A virus genotype 1b infected in human Huh-7.5.1 cells assessed as reduction in virus production at 10 uM incubated for 72 hrs after 6 hrs HAV/NLuc infection by Nano-Glo luciferase assay; assay type: functional, organism-based
Hepatovirus A [5] = experiment: Antiviral activity against hepatitis A virus infected in human Huh-7.5.1 cells assessed as reduction in viral RNA replication at 2 to 50 uM incubated for 72 hrs by luciferase reporter dependent subgenomic replicon assay; assay type: functional; settings: dose 2-50 µM
Hepatovirus A [6] = experiment: Antiviral activity against hepatitis A virus TICM005 infected in human Huh-7.5.1 cells assessed as reduction in cytoplasmic viral RNA level at 5 to 20 uM incubated for 72 hrs dosed after infection for 6 hrs by RT-qPCR method; assay type: functional, organism-based; settings: TICM005, Huh-7.5.1
Hepatovirus A [7] = experiment: Antiviral activity against hepatitis A virus genotype 1b infected in human Huh-7.5.1 cells assessed as reduction in virus production incubated for 72 hrs by Nano-Glo luciferase assay; assay type: functional, organism-based; settings: for Activity: DDE = dose-dependent effect; for EC50: Huh-7.5.1, 72 h
Hepatovirus A [8] = experiment: Antiviral activity against hepatitis A virus HM175 infected in human Huh-7.5.1 cells assessed as reduction in HAV2c Protein expression at 10 uM incubated for 48 hrs by immunofluorescence assay; assay type: functional, organism-based
Hepatovirus A [9] = experiment: Antiviral activity against hepatitis A virus HM175/18f infected in human Huh-7.5.1 cells assessed as reduction in HM175 production at 2 to 50 uM incubated for 72 hrs by RT-qPCR method; assay type: functional, organism-based; settings: dose 2-50 µM, DDE = dose-dependent effect
Hepatovirus A [10] = experiment: Antiviral activity against hepatitis A virus KRM031 infected in human Huh-7.5.1 cells assessed as reduction in cytoplasmic viral RNA level at 5 to 20 uM incubated for 72 hrs dosed after infection for 6 hrs by RT-qPCR method; assay type: functional, organism-based; settings: KRM031, Huh-7.5.1

Structure (SMILES)	Activity (Hepatovirus A [1])	Activity (Huh7.5.1)	selectivity ratio [2]	CC50 at 72 h [3] [µM]	inhibition (Hepatovirus A [4])	inhibition (INH) (Hepatovirus A [5]) [%]	EC50 (Hepatovirus A [6]) [µM]	Activity (Hepatovirus A [7])	EC50 (Hepatovirus A [7]) [µM]	Activity (Hepatovirus A [8])	inhibition (Hepatovirus A [9])	EC50 (Hepatovirus A [10]) [µM]
COc1cc(OCC(=O)N/N=C/c2ccc(Cl)c(O)c2)cc2c1CCC(c1cc(OC)c(OC)c(OC)c1)O2 (stereo unspecified)	Active	Toxic	–	–	–	–	–	–	–	–	–	–
COc1cc(OCC(=O)N/N=C(\C)c2ccccc2O)cc2c1CCC(c1cc(OC)c(OC)c(OC)c1)O2 (stereo unspecified)	Active	Toxic	–	–	–	–	–	–	–	–	–	–
COc1cc(OCC(=O)N/N=C/c2ccc(Cl)s2)cc2c1CCC(c1cc(OC)c(OC)c(OC)c1)O2 (stereo unspecified)	Active	Non-Toxic	15.7	83.3	Active	98.1	11.7	Dde	5.3	Active	Dde	8.5
COc1cc(OCC(=O)N/N=C/c2ccc(Cl)c(Cl)c2)cc2c1CCC(c1cc(OC)c(OC)c(OC)c1)O2 (stereo unspecified)	Active	Toxic	–	–	–	–	–	–	–	–	–	–
COc1ccc(/C=N/NC(=O)COc2cc(OC)c3c(c2)OC(c2cc(OC)c(OC)c(OC)c2)CC3)cc1 (stereo unspecified)	Active	Toxic	–	–	–	–	–	–	–	–	–	–
COc1cc(OCC(=O)N/N=C/c2ccc(Br)cc2)cc2c1CCC(c1cc(OC)c(OC)c(OC)c1)O2 (stereo unspecified)	Active	Non-Toxic	25	152	Active	93	> 20	Dde	6.1	Active	Dde	> 20
COc1cc(OCC(=O)N/N=C/c2ccc(Cl)cc2)cc2c1CCC(c1cc(OC)c(OC)c(OC)c1)O2 (stereo unspecified)	Active	Non-Toxic	16.3	89.8	Active	98.3	14.2	Dde	5.5	Active	Dde	13.1
COc1cc(OCC(=O)N/N=C/c2ccc(C)cc2)cc2c1CCC(c1cc(OC)c(OC)c(OC)c1)O2 (stereo unspecified)	Active	Non-Toxic	11.1	103	Active	56.4	> 20	Dde	9.3	Active	Dde	> 20

From ChEMBL document CHEMBL5113410, “Novel flavonoid hybrids as potent antiviral agents against hepatitis A: Design, synthesis and biological evaluation” (Eur J Med Chem, 2022)
